In the supplement of paper PMC11208160:

Experiment: recombinant barcode read abundance after kanamycin selection (control-corrected) (log10(CPM+1)); higher = more efficient recombination; sequences stand for … in AGTGCAGAGAAAATCGGCCAGTTTTCTCTGCCTGCAGTCCGCATGCCGT…AGATTTATGCAGCGGACTGCCTTTCTCCCAAAGTGATAAACCGGACAGTATCATGGACCGGTTTTCCCGGTAATCCGTATTTGCAAGGTTGGTTTCACT; site = the 11-nt target
In short: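 Reported as log10(CPM+1), each value stands for recombination efficiency. That efficiency is the averaged, control-corrected counts per million of barcodes found at recombinant junctions. Cells from a pooled E. coli library pairing targets with IS621 bridge RNA target-binding loops were plated twice on chloramphenicol/ampicillin LB agar (control) and twice on chloramphenicol/ampicillin/kanamycin with 0.1 mM IPTG.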
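Note: IS621 recombinase and bridge RNA in Escherichia coli cells.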

Row | Sequence | recombinant barcode read abundance (log10)
1 | TGCTACCCTTGGGTTCTAACCTGTTGCCT (site TACTACCCTAG) | 0.81
2 | TGCTACCCTTGGGTTCTAACCTGTTGCCT (site TCCTACCCTAG) | 0.367
3 | TGCTACCCTTGGGTTCTAACCTGTTGCCT (site TGCTACCCTAG) | 0.427
4 | TGCTACCCTTGGGTTCTAACCTGTTGCCT (site TTCTACCCTAG) | 0.213
5 | TGCTGATCTTGGGTTCTAACCTGTTGCCT (site AGCTGATCTAG) | 0.114
6 | TGCTGATCTTGGGTTCTAACCTGTTGCCT (site CGCTGATCTAG) | 0.159
7 | TGCTGATCTTGGGTTCTAACCTGTTGCCT (site GGCTGATCTAG) | 0.158
8 | TGCTGATCTTGGGTTCTAACCTGTTGCCT (site TGCTGATCTAG) | 0.335
9 | TGCTGTACTTGGGTTCTAACCTGTTGCCT (site TGCTGTACTAG) | 0
10 | TGCTGTACTTGGGTTCTAACCTGTTGCCT (site TGCTGTCCTAG) | 0.0484
11 | TGCTGTACTTGGGTTCTAACCTGTTGCCT (site TGCTGTGCTAG) | 0.0772
12 | TGCTGTACTTGGGTTCTAACCTGTTGCCT (site TGCTGTTCTAG) | 0.0131
13 | TGCTGTTCTTGGGTTCTAACCTGTTGCCT (site TGCTGTACTAG) | 0.0922
14 | TGCTGTTCTTGGGTTCTAACCTGTTGCCT (site TGCTGTCCTAG) | 0.212
15 | TGCTGTTCTTGGGTTCTAACCTGTTGCCT (site TGCTGTGCTAG) | 0.241
16 | TGCTGTTCTTGGGTTCTAACCTGTTGCCT (site TGCTGTTCTAG) | 0.187
17 | TGCTTACCTTGGGTTCTAACCTGTTGCCT (site AGCTTACCTAG) | 0.0889
18 | TGCTTACCTTGGGTTCTAACCTGTTGCCT (site CGCTTACCTAG) | 0.332
19 | TGCTTACCTTGGGTTCTAACCTGTTGCCT (site GGCTTACCTAG) | 0.185
20 | TGCTTACCTTGGGTTCTAACCTGTTGCCT (site TGCTTACCTAG) | 0.282
21 | TGGAAGTCTTGGGTTCTAACCTGTTGCTT (site TGAAAGCCTAA) | 0
22 | TGGAAGTCTTGGGTTCTAACCTGTTGCTT (site TGGAAGTCTAA) | 0.418

Row | Sequence | recombinant barcode read abundance (log10)
23 | TGGAATTCTTGGGTTCTAACCTGTTGCTT (site TGGAATTCTAA) | 0.0863
24 | TGGAATTCTTGGGTTCTAACCTGTTGCTT (site TGGACTTCTAA) | 0.0255
25 | TGGACCACTTGGGTTCTAACCTGTTGCCT (site TGGAACACTAG) | 0.0728
26 | TGGACCACTTGGGTTCTAACCTGTTGCCT (site TGGACCACTAG) | 0.765
27 | TGGACCACTTGGGTTCTAACCTGTTGCCT (site TGGAGCACTAG) | 0.0755
28 | TGGACCACTTGGGTTCTAACCTGTTGCCT (site TGGATCACTAG) | 0.0342
29 | TGGACTACTTGGGTTCTAACCTGTTGCTC (site CTACAACCTCT) | 0.209
30 | TGGACTACTTGGGTTCTAACCTGTTGCTC (site TGGACTACTGA) | 0.195
31 | TGGACTTCTTGGGTTCTAACCTGTTGCTG (site TGGACTTCTCA) | 0.0836
32 | TGGACTTCTTGGGTTCTAACCTGTTGCTG (site TGGACTTCTGA) | 0.215
33 | TGGAGCCCTTGGGTTCTAACCTGTTGCAG (site TGGAGCCCTAT) | 0.13
34 | TGGAGCCCTTGGGTTCTAACCTGTTGCAG (site TGGAGCCCTCT) | 0.484
35 | TGGAGCCCTTGGGTTCTAACCTGTTGCAG (site TGGAGCCCTGT) | 0.336
36 | TGGAGCCCTTGGGTTCTAACCTGTTGCAG (site TGGAGCCCTTT) | 0.0206
37 | TGGAGTACTTGGGTTCTAACCTGTTGCCT (site TGGAGTACTAG) | 0.874
38 | TGGAGTACTTGGGTTCTAACCTGTTGCCT (site TGGCGTACTAG) | 0.0846
39 | TGGAGTACTTGGGTTCTAACCTGTTGCCT (site TGGGGTACTAG) | 0.146
40 | TGGAGTACTTGGGTTCTAACCTGTTGCCT (site TGGTGTACTAG) | 0
41 | TGGAGTCCTTGGGTTCTAACCTGTTGCCT (site TGGAGTCCTAG) | 1.11
42 | TGGAGTCCTTGGGTTCTAACCTGTTGCCT (site TGGCGTCCTAG) | 0.0977
43 | TGGAGTCCTTGGGTTCTAACCTGTTGCCT (site TGGGGTCCTAG) | 0.548
44 | TGGAGTCCTTGGGTTCTAACCTGTTGCCT (site TGGTGTCCTAG) | 0.0821

Row | Sequence | recombinant barcode read abundance (log10)
45 | TGGATGGCTTGGGTTCTAACCTGTTGCCT (site GGGATGGCTAG) | 0.149
46 | TGGATGGCTTGGGTTCTAACCTGTTGCCT (site TGGATGGCTAG) | 0.17
47 | TGGCAGGCTTGGGTTCTAACCTGTTGCCT (site TGGCAGACTAG) | 0.0119
48 | TGGCAGGCTTGGGTTCTAACCTGTTGCCT (site TGGCAGCCTAG) | 0.00869
49 | TGGCAGGCTTGGGTTCTAACCTGTTGCCT (site TGGCAGGCTAG) | 0.64
50 | TGGCAGGCTTGGGTTCTAACCTGTTGCCT (site TGGCAGTCTAG) | 0.0352
51 | TGGCAGTCTTGGGTTCTAACCTGTTGCCT (site TGGCAGACTAG) | 0.207
52 | TGGCAGTCTTGGGTTCTAACCTGTTGCCT (site TGGCAGCCTAG) | 0.0447
53 | TGGCAGTCTTGGGTTCTAACCTGTTGCCT (site TGGCAGGCTAG) | 0.272
54 | TGGCAGTCTTGGGTTCTAACCTGTTGCCT (site TGGCAGTCTAG) | 0.413
55 | TGGCATCCTTGGGTTCTAACCTGTTGCGT (site AACAGGGCTCG) | 0.0723
56 | TGGCATCCTTGGGTTCTAACCTGTTGCGT (site TGGCATCCTAC) | 2.53
57 | TGGCCACCTTGGGTTCTAACCTGTTGCCT (site CGGCCACCTAG) | 0.115
58 | TGGCCACCTTGGGTTCTAACCTGTTGCCT (site TGGCCACCTAG) | 1.6
59 | TGGCCCTCTTGGGTTCTAACCTGTTGCTT (site TGGCCCTCTAA) | 1.63
60 | TGGCCCTCTTGGGTTCTAACCTGTTGCTT (site TGGCCCTCTCA) | 0.293
61 | TGGCCCTCTTGGGTTCTAACCTGTTGCTT (site TGGCCCTCTGA) | 0.52
62 | TGGCCCTCTTGGGTTCTAACCTGTTGCTT (site TGGCCCTCTTA) | 0.056
63 | TGGCCGACTTGGGTTCTAACCTGTTGCAC (site TCGCAGACTGT) | 0.0415
64 | TGGCCGACTTGGGTTCTAACCTGTTGCAC (site TGGCCGACTGT) | 1.65
65 | TGGCCTGCTTGGGTTCTAACCTGTTGCCT (site TGGCCTGCTAG) | 0.868
66 | TGGCCTGCTTGGGTTCTAACCTGTTGCCT (site TGGCGAGCTAG) | 0.176

Row | Sequence | recombinant barcode read abundance (log10)
67 | TGGCTAGCTTGGGTTCTAACCTGTTGCAC (site CATTCGCCTAC) | 0.0401
68 | TGGCTAGCTTGGGTTCTAACCTGTTGCAC (site TGGCTAGCTGT) | 1.77
69 | TGGGACACTTGGGTTCTAACCTGTTGCCG (site AGGGACTCTCG) | 0.403
70 | TGGGACACTTGGGTTCTAACCTGTTGCCG (site TGGGACACTCG) | 2.48
71 | TGGGTCACTTGGGTTCTAACCTGTTGCTA (site GTTTAATCTAT) | 0.0621
72 | TGGGTCACTTGGGTTCTAACCTGTTGCTA (site TGGGTCACTTA) | 2.07
73 | TGGGTCCCTTGGGTTCTAACCTGTTGCGA (site AAATGTACTAG) | 0.252
74 | TGGGTCCCTTGGGTTCTAACCTGTTGCGA (site TGGGTCCCTTC) | 3
75 | TGGTATCCTTGGGTTCTAACCTGTTGCCT (site TGGTATACTAG) | 0.15
76 | TGGTATCCTTGGGTTCTAACCTGTTGCCT (site TGGTATCCTAG) | 0.954
77 | TGGTATCCTTGGGTTCTAACCTGTTGCCT (site TGGTATGCTAG) | 0.396
78 | TGGTATCCTTGGGTTCTAACCTGTTGCCT (site TGGTATTCTAG) | 0.358
79 | TGGTCGGCTTGGGTTCTAACCTGTTGCAC (site TAGTCAGCTGT) | 0.0913
80 | TGGTCGGCTTGGGTTCTAACCTGTTGCAC (site TGGTCGGCTGT) | 0.385
81 | TGGTGCGCTTGGGTTCTAACCTGTTGCCT (site TGGTACGCTAG) | 0.33
82 | TGGTGCGCTTGGGTTCTAACCTGTTGCCT (site TGGTCCGCTAG) | 0.324
83 | TGGTGCGCTTGGGTTCTAACCTGTTGCCT (site TGGTGCGCTAG) | 1.21
84 | TGGTGCGCTTGGGTTCTAACCTGTTGCCT (site TGGTTCGCTAG) | 0.0427
85 | TGGTGTCCTTGGGTTCTAACCTGTTGCCA (site TCGAGTCCTTG) | 0.0738
86 | TGGTGTCCTTGGGTTCTAACCTGTTGCCA (site TGGTGTCCTTG) | 0.473
